Reference: PMC10498667 (Chemical Science, 2023)

Key:
15N-labeled Aβ40 = target: T1, 15N-labeled Aβ40 (Homo sapiens, UniProt P05067); test: 2D SOFAST-HMQC NMR with 15N-labeled Aβ40; assay type: binding; details: 15N-Aβ40 33 μM; 6 100 μM; 10 °C
T1 construct: AEDVG SNKGA IIGLM VGGVV; purchased rPeptide (Georgia, GA, USA)
Protocol: 2D 1H−15N SOFAST-HMQC NMR Experiments. […] To remove possible preformed aggregates, the lyophilized peptide was then redissolved in diluted NaOH (pH 10) and passed through a filter (0.22 µm). On the other hand, the stock solution of 15N-labeled Ab42 based on the previous report.27 Briefly, uniformly 15N-labeled Ab42 was solubilized in diluted NaOH (pH 10) at a concentration of ~200 µM. The undissolved precipitates of Ab42 were removed by centrifugation at 40,000 rpm for 1 h. The solution of 15N-labeled Ab (33 µM) was prepared with and without 6 (100 µM; 1% v/v DMSO) in 20 mM HEPES, pH 7.4 (10% v/v D2O) for NMR experiments. All spectra were acquired with 180 scans at 10 °C. Dimensions of the spectra were 1,024 (1H) ´ 128 (15N) points. Experimental data were processed with NMRpipe29 and Sparky 3.115.30 The 1H and 15N assignments of 15N-labeled Ab were determined based on the previous results.21,31 The chemical shift perturbation was calculated following the equation (eq 4).32 Note that DdH and DdN represent the alterations in the chemical shifts of 1H and 15N of 15N-labeled Ab, respectively.

[1] = system: human neuroblastoma 5Y cells; test: MTT cytotoxicity assay; assay type: cell-based; details: at up to 100 μM; 24 h; 5Y cells; relative to DMSO
Protocol: Flavonoid 6 was synthesized following previously reported procedures with modifications.[66–68] […] It should be noted that cell viability was calculated, relative to that of the cells containing an equivalent amount of DMSO.
(§1) Cell viability was determined by the MTT assay [MTT = 3-(4,5-dimethylthiazol-2-yl)-2,5-diphenyltetrazolium bromide]. Cells were seeded in a 96-well plate (15,000 cells/100 µL) and treated with the samples {[flavonoid] = 5, 10, 25, 50, and 100 µM (1% v/v DMSO)}. After 24 h incubation, 5Y cells were washed with phosphate buffered saline (PBS; GIBCO). MTT [5 mg/mL in PBS (pH 7.4, GIBCO); 25 µL] was added to each well and the plate was incubated for 4 h at 37 °C. The formazan produced by cells was solubilized using an acidic solution of DMF (pH 4.5, 50% v/v, aq) and sodium dodecyl sulfate (SDS; 20% w/v) overnight at room temperature in the dark. Absorbance was measured at 600 nm by a microplate reader (Molecular Devices). Cell viability, relative to that of the cells containing an equivalent amount of DMSO, was calculated.
(§2) The measurements were conducted in triplicate. […]

15N-labeled Aβ42 = target: T2, 15N-labeled Aβ42 (Homo sapiens, UniProt P05067); test: 2D SOFAST-HMQC NMR with 15N-labeled Aβ42; assay type: binding; details: 15N-Aβ42 33 μM; 6 100 μM; 10 °C
T2 construct: the human Ab42 peptide was artificially constructed using codons; extra Met residue (start codon) before Asp1 (N); made in house; host or cells: E. coli BL21 (DE3) pLysS, pAED4 vector
T2 sequence (P05067 671-713 limits assumed): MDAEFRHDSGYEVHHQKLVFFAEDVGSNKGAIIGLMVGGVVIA
Protocol: as §1, §2
loading into the instrument. […]
The initial delay and the reference power were 60 s and 10 µcal/s, […]
(§3) The ITC thermogram and binding isotherm were shown after the subtraction of the dilution heat.
The binding isotherm after baseline correction was fitted to the one-set-of-sites binding model using the MicroCal Origin software (version 7.0).
Expression and Purification of 15N-labeled Recombinant Ab42. […]

Aβ40 = target: T3, Aβ40 (Homo sapiens, UniProt P05067); test: ITC binding of 6 with Aβ40
T3 construct: Ab40 ([…]-; purchased Peptide Institute, Inc. (Osaka, Japan)
T3 sequence (P05067 672-711 limits assumed): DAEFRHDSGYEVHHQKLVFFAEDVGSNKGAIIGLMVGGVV
Protocol: Distinct reactivities of 6 with metal-free Aβ and metal–Aβ were supported by various biophysical approaches. […] In the absence of Aβ, an increase or decrease in the absorption of the peaks at ca. 265, 300, 340, and 410 nm was monitored for 24 h (Fig. S18 ^†), which could be resulted from the oxidation of 6 in the presence of O2.[69] These spectral changes were accelerated upon incubation with Aβ, indicative of its impact on the oxidative modification of 6. Such transformation of 6 was also indicated in the presence of Cu(II) or Zn(II) with and without Aβ. To probe the interaction of 6 with Aβ, their binding properties were analyzed by isothermal titration calorimetry (ITC). For the association between 6 and Aβ, we recorded the heat change upon constant titration of the flavonoid into the solution of Aβ, where the dilution heat was also measured to avoid the heat change induced by its addition into the buffered solution. […] Thus, 6 can bind to Aβ with a micromolar binding affinity. […]
ITC. The solutions of Ab and 6 were subjected to degassing under vacuum for 3 min prior to loading into the instrument. […] […] The initial delay and the reference power were 60 s and 10 µcal/s, respectively. Dilution heat of 6 only was also measured under the same experimental conditions.
as §3
The binding isotherm after baseline correction was fitted to the one-set-of-sites binding model using the MicroCal Origin software (version 7.0). […]

T1 sequence (P05067 672-711 limits assumed): as above

Q: Which “decrease of overall NMR peak intensity” value (15N-labeled Aβ40) does the source give for `O=c1c(-c2ccc(O)c(O)c2)coc2cc(O)c(O)c(O)c12` [compound 6, 3-(3,4-dihydroxyphenyl)-5,6,7-trihydroxy-4H-chromen-4-one] here?
A: Its value is “ca. 10%”.

Q: What about the cell survival [1] of the same compound?
A: Its cell survival is > 90%.

Q: And the “decrease of overall NMR peak intensity” value (15N-labeled Aβ42)?
A: The value was “ca. 20%”.

Q: And the Kd (Aβ40; one-set-of-sites model, 10 °C, read-out: Binding affinity)?
A: The Kd was ~20.5 µM.

Q: And the TΔS (Aβ40; pH 7.4, 10 °C)?
A: Its TΔS is 5.4 (±0.7) kcal mol^−1.

Q: And the ΔG (Aβ40; pH 7.4, 10 °C)?
A: Its ΔG is −6.0 (±0.5) kcal mol^−1.

Q: And the ΔH (Aβ40; pH 7.4, 10 °C)?
A: The ΔH was −0.6 (±0.5) kcal mol^−1.
